In PubChem BioAssay AID330 (DTP/NCI, 2004):
“And” between values parts separate entries of the source, which are not always exact repeats. Equal values may be shown once. Inconclusive results and toxic doses are left out. Rule for the calls: active = survival T/C of 150% or more; inactive = T/C below 125% in these data. Square brackets hold non-standard residues; d marks the D form. Peptide text beside a SMILES is read from it. * marks the point of attachment. Cbz = O=C(OCc1ccccc1)*; Nva = CCC[CH](N)C(=O)O

Test system: P388 leukemia ip, CD2F1 mice, survival T/C
Test: NCI In Vivo Anticancer Drug Screen. Data for tumor model P388 Leukemia (intraperitoneal) in CD2F1 (CDF1) mice
Settings: endpoint: median survival time, higher = longer survival
Summary of the method: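 Mice carrying the transplanted tumor received test compound or vehicle. Survival was recorded in each group, and the value is the treated-group measurement divided by that of the vehicle-treated control group.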

[1] = dose: 50.0 mg/kg/injection, schedule: Q01DX009 (ip), vehicle: saline with Tween-80
[2] = dose: 100.0 mg/kg/injection, schedule: Q01DX009 (ip), vehicle: saline with Tween-80
[3] = dose: 200.0 mg/kg/injection, schedule: Q01DX009 (ip), vehicle: saline with Tween-80
[4] = dose: 400.0 mg/kg/injection, schedule: Q01DX009 (ip), vehicle: saline with Tween-80
[5] = dose: 50.0 mg/kg/injection, schedule: Q01DX009 (ip), vehicle: Klucel (hydroxypropylcellulose) (HPC)
[6] = dose: 100.0 mg/kg/injection, schedule: Q01DX009 (ip), vehicle: Klucel (hydroxypropylcellulose) (HPC)
[7] = dose: 200.0 mg/kg/injection, schedule: Q01DX009 (ip), vehicle: Klucel (hydroxypropylcellulose) (HPC)
[8] = dose: 25.0 mg/kg/injection, schedule: Q01DX009 (ip), vehicle: saline with Tween-80
[9] = dose: 50.0 mg/kg/injection, schedule: Q01DX005 (ip), vehicle: Klucel (hydroxypropylcellulose) (HPC)
[10] = dose: 100.0 mg/kg/injection, schedule: Q01DX005 (ip), vehicle: Klucel (hydroxypropylcellulose) (HPC)
[11] = dose: 200.0 mg/kg/injection, schedule: Q01DX005 (ip), vehicle: Klucel (hydroxypropylcellulose) (HPC)
[12] = dose: 50.0 mg/kg/injection, schedule: Q01DX005 (ip), vehicle: saline with Tween-80
[13] = dose: 100.0 mg/kg/injection, schedule: Q01DX005 (ip), vehicle: saline with Tween-80
[14] = dose: 200.0 mg/kg/injection, schedule: Q01DX005 (ip), vehicle: saline with Tween-80
[15] = dose: 60.0 mg/kg/injection, schedule: Q01DX005 (ip), vehicle: saline with Tween-80
[16] = dose: 120.0 mg/kg/injection, schedule: Q01DX005 (ip), vehicle: saline with Tween-80
[17] = dose: 240.0 mg/kg/injection, schedule: Q01DX005 (ip), vehicle: saline with Tween-80

Measured: T/C

CC(=O)c1ccc(-c2ccc(C(C)=O)cc2)cc1
inactive: [1] 96 % of control | [2] 100 % of control | [3] 87 % of control | [4] 87 % of control

CCOC(=O)CNC(=O)N1COCC1(C)C
inactive: [5] 95 % of control | [6] 95 % of control | [7] 95 % of control

CC(C)Cc1cn(O)c2nc(=N)nc(N)c-2n1
inactive: dose: 12.5 mg/kg/injection, schedule: Q01DX009 (ip), vehicle: saline with Tween-80 100 % of control | [8] 93 % of control | [1] 101 % of control

CCCC(O)/C=C/C=C/C=C/C#CC#CCCCO (stereo not drawn)
inactive: dose: 0.25 mg/kg/injection, schedule: Q01DX005 (ip), vehicle: DMSO 105 % of control | dose: 1.0 mg/kg/injection, schedule: Q01DX005 (ip), vehicle: DMSO 101 % of control and 110 % of control | dose: 2.0 mg/kg/injection, schedule: Q01DX005 (ip), vehicle: DMSO 124 % of control and 96 % of control | dose: 4.0 mg/kg/injection, schedule: Q01DX005 (ip), vehicle: DMSO 104 % of control | dose: 8.0 mg/kg/injection, schedule: Q01DX005 (ip), vehicle: DMSO 105 % of control

NN1C(=O)c2ccccc2C1=O
inactive: [1] 96 % of control | [2] 112 % of control | [3] 95 % of control | [4] 99 % of control

CCCC(NC(=O)OCc1ccccc1)C(=O)NC(Cc1ccccc1)C(N)=O (stereo not drawn) (Cbz-[Nva]-Phe-NH2; configuration not given here)
inactive: [9] 89 % of control | [10] 97 % of control | [11] 88 % of control

O=C(Nc1ccc(Cl)c(Cl)c1)n1cnc2ccccc21
inactive: dose: 6.25 mg/kg/injection, schedule: Q01DX009 (ip), vehicle: saline 105 % of control and 109 % of control | [1] 98 % of control

CC(C)COCC1COC2(OCC(C)(C)C2OC(=O)Nc2ccccc2)O1 (stereo not drawn)
inactive: dose: 60.0 mg/kg/injection, schedule: Q01DX005 (ip), vehicle: Klucel (hydroxypropylcellulose) (HPC) 95 % of control | dose: 120.0 mg/kg/injection, schedule: Q01DX005 (ip), vehicle: Klucel (hydroxypropylcellulose) (HPC) 94 % of control | dose: 240.0 mg/kg/injection, schedule: Q01DX005 (ip), vehicle: Klucel (hydroxypropylcellulose) (HPC) 91 % of control

CC(C)S(=O)(=O)c1s[nH]c(=O)c1-c1ccccc1
inactive: [5] 109 % of control | [6] 107 % of control | [7] 101 % of control

NS(=O)(=O)c1ccc(NC(=S)Nc2ccccc2C(F)(F)F)cc1
inactive: dose: 50.0 mg/kg/injection, schedule: Q01DX009 (ip), vehicle: gum acacia 92 % of control | dose: 100.0 mg/kg/injection, schedule: Q01DX009 (ip), vehicle: gum acacia 109 % of control | dose: 200.0 mg/kg/injection, schedule: Q01DX009 (ip), vehicle: gum acacia 100 % of control

CCOP(=O)(O)SP(=O)(O)OCC.[Zn+2]
inactive: [8] 109 % of control | [1] 103 % of control and 115 % of control

CCN(CC)C(=O)c1c(C(=O)OC)c(C)n(NC(N)=O)c1C
inactive: [12] 105 % of control | [13] 107 % of control | [14] 108 % of control

CC1CCC(C(C)C)C(NC(=O)c2cc[n+](C)cc2)C1 (stereo not drawn)
inactive: [9] 100 % of control | [10] 108 % of control

Nc1nc2c(C(=O)c3cccs3)nnn2c2cccc(Cl)c12
inactive: [15] 99 % of control | [16] 100 % of control | [17] 104 % of control

COc1cc2c(c(OC)c1OC)CCc1cn[nH]c1-2
inactive: dose: 100.0 mg/kg/injection, schedule: Q01DX001 (ip), vehicle: Klucel (hydroxypropylcellulose) (HPC) 116 % of control | dose: 200.0 mg/kg/injection, schedule: Q01DX001 (ip), vehicle: Klucel (hydroxypropylcellulose) (HPC) 123 % of control | dose: 400.0 mg/kg/injection, schedule: Q01DX001 (ip), vehicle: Klucel (hydroxypropylcellulose) (HPC) 116 % of control

OCC1OC([Se])C(O)C(O)C1O.[CH3][Sb][CH3] (stereo not drawn)
inactive: [15] 112 % of control | [16] 104 % of control

CCOC(=O)C(CCC(OCC)OCC)C(=O)OCC
inactive: dose: 50.0 mg/kg/injection, schedule: Q01DX009 (ip), vehicle: saline 103 % of control | dose: 100.0 mg/kg/injection, schedule: Q01DX009 (ip), vehicle: saline 102 % of control | dose: 200.0 mg/kg/injection, schedule: Q01DX009 (ip), vehicle: saline 101 % of control

COc1ccc(Nc2cc[nH]c(=O)c2NC(C)=O)cc1
inactive: [15] 100 % of control | [16] 96 % of control | [17] 94 % of control

O=C(N/C(=C\c1nc2ccccc2s1)c1ccccc1O)c1ccccc1
inactive: dose: 100.0 mg/kg/injection, schedule: Q04DX002 (ip), vehicle: saline with Tween-80 104 % of control | dose: 200.0 mg/kg/injection, schedule: Q04DX002 (ip), vehicle: saline with Tween-80 99 % of control | dose: 400.0 mg/kg/injection, schedule: Q04DX002 (ip), vehicle: saline with Tween-80 103 % of control

CP1(=S)C=C(N2CCCC2)CC1 (stereo not drawn)
inactive: [5] 107 % of control and 109 % of control | [6] 99 % of control and 120 % of control | [7] 104 % of control and 95 % of control

CC(=O)C(C(=O)Nc1cccc2ccccc12)C(C)=NCC(C)N=C(C)C(C(C)=O)C(=O)Nc1cccc2ccccc12.[Cu] (stereo not drawn)
inactive: dose: 12.5 mg/kg/injection, schedule: Q01DX005 (ip), vehicle: saline + Tween-80 + alcohol 110 % of control | dose: 25.0 mg/kg/injection, schedule: Q01DX005 (ip), vehicle: saline + Tween-80 + alcohol 96 % of control | dose: 50.0 mg/kg/injection, schedule: Q01DX005 (ip), vehicle: saline + Tween-80 + alcohol 105 % of control

CC(=NCCN=C(C)c1cc(C)cc(Br)c1O)c1cc(C)cc(Br)c1O
inactive: [9] 108 % of control | [10] 101 % of control | [11] 117 % of control

O=C(O)C(F)(F)F
inactive: [2] 90 % of control | [3] 95 % of control | [4] 90 % of control

COC(=O)Cn1/c(=N\N=C(/C)c2ccc(OC)cc2)sc2ccccc21
inactive: dose: 100.0 mg/kg/injection, schedule: Q01DX001 (ip), vehicle: saline with Tween-80 101 % of control | dose: 200.0 mg/kg/injection, schedule: Q01DX001 (ip), vehicle: saline with Tween-80 117 % of control | dose: 400.0 mg/kg/injection, schedule: Q01DX001 (ip), vehicle: saline with Tween-80 92 % of control

CC(=O)OC1C(C)OC(OC2C(OC(=O)C3CCC4C(C3)OC3(CC(OC(=O)/C=C/c5ccccc5)C(C)CO3)C43CO3)OC(C)C(OC(C)=O)C2OC(C)=O)C(OC(C)=O)C1OC(C)=O (stereo not drawn)
inactive: dose: 3.0 mg/kg/injection, schedule: Q01DX005 (ip), vehicle: saline 100 % of control | dose: 3.75 mg/kg/injection, schedule: Q01DX009 (ip), vehicle: saline + alcohol 100 % of control | dose: 6.0 mg/kg/injection, schedule: Q01DX005 (ip), vehicle: saline 106 % of control | dose: 7.5 mg/kg/injection, schedule: Q01DX009 (ip), vehicle: saline + alcohol 98 % of control | dose: 12.0 mg/kg/injection, schedule: Q01DX005 (ip), vehicle: saline 99 % of control | dose: 15.0 mg/kg/injection, schedule: Q01DX009 (ip), vehicle: saline + alcohol 102 % of control | dose: 24.0 mg/kg/injection, schedule: Q01DX005 (ip), vehicle: saline 106 % of control | dose: 30.0 mg/kg/injection, schedule: Q01DX009 (ip), vehicle: saline + alcohol 104 % of control

CSCCC(NC(=O)OC(C)(C)C)C(=O)ON1C(=O)CCC1=O (stereo not drawn)
inactive: dose: 12.5 mg/kg/injection, schedule: Q01DX005 (ip), vehicle: saline with Tween-80 101 % of control and 107 % of control | dose: 25.0 mg/kg/injection, schedule: Q01DX005 (ip), vehicle: saline with Tween-80 103 % of control and 107 % of control | [12] 117 % of control and 98 % of control | [13] 106 % of control and 113 % of control and 116 % of control | [14] 107 % of control and 97 % of control

CC(NC(=O)OCc1ccccc1)C(=O)Oc1ccccc1[N+](=O)[O-] (stereo not drawn)
inactive: [1] 96 % of control | [2] 103 % of control | [3] 105 % of control

CCCCCCC1(C(=O)OCCN(CC)CC)CCCCC1
inactive: [12] 101 % of control | [13] 105 % of control

O=C1N2CCCSC2=NC1(c1ccccc1)c1ccccc1
inactive: [15] 97 % of control | [16] 98 % of control | [17] 89 % of control
